Data taken from patent US20100190237A1, “COMPOSITIONS AND METHODS FOR STORAGE OF BACTERIAL SUSPENSIONS” (priority 2007, published 2010).

Legend:
P. leiognathi = assay: ToxScreen-II toxicity assay (bacterial luminescence) with stored bacterial suspension; type: cell-based; conditions: light level after 30 minutes at 27° C.
Experimental: In order to determine how long a bacterial suspension stored in a solution according to an exemplary embodiment of the invention could be useful in a toxicity assay, a toxicity assay (ToxScreen-II, CheckLight Ltd, Qiryat Tivon, Israel) was conducted repeatedly over time.
In the assay, 0.01 mL aliquots were drawn from the bacterial suspension (P. leiognathi) in the medium at 4 time points during 30 days and incubated with chemical toxicants in assay buffer diluted in mineral water. Light level was determined after 30 minutes at 27° C.

[1] = test system: luminescent bacteria (e.g. Photobacterium leiognathi, Vibrio fischeri, Vibrio harveyi); assay: titration of medium components: luminescence during long term storage at refrigeration temperatures; type: cell-based; conditions: for range I: concentrations that provided a marked improvement over negative control / range II: concentrations that produced no negative effect relative to negative control: based on results of examples 2 through 9; for effect of antibiotic on luminescence during long term storage: antibiotic at 15 mg/L in storage solution; for concentration that slowed the reduction in luminescence better than other tested concentrations: storage at -2 to +4° C. over several weeks, other components constant as in Table 1, pH 7.2
Experimental: In order to identify storage conditions suitable for a long term medium for a suspension of luminescent bacteria (e.g. Photobacterium leiognathi, Vibrio fischeri, Vibrio harveyi) different concentrations of monovalent salts, sugars, sources of divalent cations, protein mixtures, albumins and alcohols were tested.
Each of the medium components (including pH) was tested separately while all other components were kept at a constant concentration as indicated in Table 1. For titration of other components pH was held constant at 7.2. The effect on bacterial luminescence of each component at each tested concentration (or pH value) was determined over a period of several weeks.
In order to perform the titration of the medium components, a bacterial culture was spread on LA plates at about 300 colonies per plate after over night growth. Colonies were collected from plates with ASW and centrifuged (10000 g, 10 minutes, 4° C.). Harvested bacteria were resuspended in the different solutions to form experimental bacterial suspensions.
Experimental bacterial suspensions were stored at −2° C.-+4° C. Each week an aliquot of each experimental bacterial suspension was drawn and diluted in artificial seawater (ASW: 0.5M NaCl, 50 mM MgSO47H2O, 10 mM CaCl22H2O, 10 mM KCl)) supplemented with 50 ppm yeast extract/glucose and incubated at 26° C.-28° C. Light level was recorded after 30 minutes.

[2] = test system: E. coli harboring the luminescence system of V. fischeri; conditions: titration as in Example 6; data not shown
Experimental: In order to determine the effect of monovalent salts on luminescence during long term storage at refrigeration temperatures, NaCl was added to medium at concentrations of 0.1, 0.5, 2.0, 3.0 and 4.5%. […] Assay of the effect of NaCl was as described in Example 1.

Compound	Sensitivity of P. leiognathi to various toxicants (P. leiognathi; Day 1 of storage)	Sensitivity of P. leiognathi to various toxicants (P. leiognathi; Day 7 of storage)	Sensitivity of P. leiognathi to various toxicants (P. leiognathi; Day 18 of storage)	Sensitivity of P. leiognathi to various toxicants (P. leiognathi; Day 30 of storage)	range I: concentrations that provided a marked improvement over negative control [1]	range II: concentrations that produced no negative effect relative to negative control [1]	other results
[Cl][Cd][Cl] [CdCl2]	0.2 mg/L	0.25 mg/L	0.3 mg/L	0.4 mg/L			
Clc1ccc(C(c2ccc(Cl)cc2)C(Cl)(Cl)Cl)cc1 [DDT]	0.007 mg/L	0.006 mg/L	0.004 mg/L	0.006 mg/L			
[K+].[K+].[O]=[Cr](=[O])([O-])[O][Cr](=[O])(=[O])[O-] [K2Cr2O7]	0.5 mg/L	0.7 mg/L	0.5 mg/L	0.6 mg/L			
[Cl-].[Na+] [NaCl]					2.0-3.0%	1.0-3.0%	salt concentration determined to be useful (preserving luminescence) [2]: 0.8-0.85%
[Cl][Pb][Cl] [PbCl2]	2 mg/L	2.5 mg/L	3 mg/L	2.5 mg/L			
CC1(C)S[C@@H]2[C@H](NC(=O)[C@H](N)c3ccccc3)C(=O)N2[C@H]1C(=O)O [ampicillin]							effect of antibiotic on luminescence during long term storage [1]: slowed the reduction in luminescence better than other tested antibiotics
O=C(N[C@H](CO)[C@H](O)c1ccc([N+](=O)[O-])cc1)C(Cl)Cl [chloramphenicol]							effect of antibiotic on luminescence during long term storage [1]: slowed the reduction in luminescence better than other tested antibiotics
CCO [ethanol]					1.0-3.5%	0.1-3.5%	concentration that slowed the reduction in luminescence better than other tested concentrations [1]: ≥ 1.5%
O[C@H]1[C@H](O)[C@@H](O)[C@H](O)[C@@H](O)[C@H]1O [inositol]					5.0-7.0%	0.5-7.0%	concentration that slowed the reduction in luminescence better than other tested concentrations [1]: 5%
[Cl-].[Cl-].[Mg+2] [magnesium, MgCl2]					1.0 to 200 mM	0.0 to 300 mM	concentration that slowed the reduction in luminescence better than other tested concentrations [1]: 200 mM
Bovine serum albumin [BSA]						0.02-1.0%	
